Measured values as given in paper PMC11062922 (Nature Chemical Biology, 2023).
Where two headings read alike, the source gives them in different places. Values belong to the compound of their own block, whether it stands above or below them.

Columns and labels:
[1] = tested on: CSF1R, FLT3, KIT, PDGFRB, PDGFRA; design: method as in chemicalprobes.org; details: 2nd of 4 values listed for 5 targets; ref chemicalprobes.org; read-out: Potency value in cells (IC50); cited from earlier work
[2] = tested on: CSF1R, FLT3, KIT, PDGFRB, PDGFRA; design: method as in chemicalprobes.org; details: ref chemicalprobes.org, cited from earlier work
ERN1 = molecular target: T1, ERN1 (Homo sapiens, UniProt O75460); design: method as in chemicalprobes.org; details: truncated human IRE1 alpha WT (AA 469-977); ref chemicalprobes.org; cited from earlier work
T1 construct: endogenous in cells

XBP1 splicing in cells = tested on: XBP1 splicing in cells; design: method as in chemicalprobes.org; details: ref chemicalprobes.org; read-out: Potency value in cells (IC50); cited from earlier work
[3] = tested on: Concanavalin A-induced cytokine production in Whole Blood; design: method as in chemicalprobes.org; details: ref chemicalprobes.org, read-out: Potency value in cells (EC50); cited from earlier work
LCK = tested on: LCK; design: method as in chemicalprobes.org; details: @ 1 mM ATP, ref chemicalprobes.org; cited from earlier work
[4] = molecular target: T2, endogenous kinases and other proteins enriched by Kinobeads from mixed lysates of K-562, COLO-205, MV-4-11, SK-N-BE(2) and OVCAR-8 (Homo sapiens, UniProt Q8NI60); assay: Kinobeads competition binding profiling, two doses (100 nM and 1 µM); details: target ADCK3; read-out: apparent Kd;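 also: inhibitor preincubated 45 min at 4 °C in cell lysate, then bead pulldown. Bound protein quantified by label-free mass spectrometry relative to DMSO vehicle control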
T2 construct: to maximize the representation of endogenous proteins; endogenous in cells

[5] = molecular target: T3, endogenous kinases and other proteins enriched by Kinobeads from mixed lysates of K-562, COLO-205, MV-4-11, SK-N-BE(2) and OVCAR-8 (Homo sapiens, UniProt P35916); assay: as above; details: target FLT4; read-out: apparent Kd
T3 construct: endogenous in cells

CDK1/cyclinB = molecular target: T4, CDK1/cyclinB (Homo sapiens, UniProt P06493); assay: Recombinant kinase activity assay (ProQinase, FlashPlate radiometric): CDK1/cyclinB; type: biochemical; details: Enzyme CDK1_CycB1; Highest Assay Concentration 1.00E-06 M
T4 construct: purchased ProQinase
Description: (§1) Kinase activity assays were performed by ProQinase. Dose-dependent activity inhibition of CDK1/cyclinB, CK2alpha1 and CK2alpha2 were measured using a FlashPlateTM-based radiometric assay at KM (ATP) of the respective kinase.

CK2alpha2 (CSNK2A2) = molecular target: T5, CK2alpha2 (CSNK2A2) (Homo sapiens, UniProt P19784); assay: Recombinant kinase activity assay (ProQinase, FlashPlate radiometric): CK2alpha2; type: biochemical
T5 construct: purchased ProQinase
Description: as §1

CSNK2A2 = CSNK2A2 (Homo sapiens, UniProt P19784); assay: Kinobeads two-dose competition binding: CSNK2A2; design: to maximize the representation of endogenous proteins; endogenous in cells; details: Kinobeads two-dose screen (binding); read-out: Kdapp CSNK2A2
Source text: Briefly, Kinobeads comprise seven broad-spectrum small molecule kinase inhibitors immobilized on Sepharose beads. […]. Compounds of interest are set to compete for target protein binding with Kinobeads in the lysate and the amount of a given protein bound to Kinobeads in the presence of a compound can be quantified relative to a dimethylsulfoxide (DMSO) vehicle control by label-free mass spectrometry. This assay measures the physical interaction of a compound with thousands of endogenous proteins in parallel and, when systematically increasing the concentration of competitor, enables the calculation of an apparent interaction constant ( Kdapp ) for each compound and protein.
Kinobeads pulldown experiments were performed as described previously[13],[14],[17] with minor modification. […] The protein concentration was adjusted to 5 mg ml^−1. Kinase inhibitors were spiked into 0.5 ml of cell lysate at final concentrations of 100 and 1,000 nM (or DMSO, 0.3, 1, 3, 10, 30, 100, 300 and 1,000 nM for full dose experiments). […] Lysates were incubated for 45 min at 4 °C. Subsequently, lysates were incubated with Kinobeads ε (17.5 µl of settled beads) for 30 min at 4 °C. To assess the degree of protein depletion from the lysates by Kinobeads, the flow through of the DMSO control was recovered for a pulldown of pulldown experiment where the lysate was incubated a second time with fresh Kinobeads. Beads were washed in three steps with buffer containing 0.4%, 0.2% and no IGEPAL. Bound proteins were reduced with 50 mM DTT in 8 M Urea, 40 mM Tris-HCl pH 7.4 for 30 min at room temperature. After alkylation with 55 mM chloroacetamide, the urea concentration was reduced to 1–2 M and proteins were digested with trypsin. Acidified peptides were desalted and concentrated using SepPak tC18 µEluation plates (Waters). Samples were frozen, dried by vacuum centrifugation and stored at −20 °C.
Each kinase inhibitor was processed together with all DMSO controls of the same plate. Additionally, each search was supplemented with five high quality DMSO controls for consistent peptide identification and protein grouping. The resultant file (proteinGroups.txt) was used for subsequent filtering, normalization, data visualization and target annotation that was automatically performed by a data processing pipeline built in house that used R (including the ‘drc’ and ‘heatmap’ packages). First, reverse hits, potential contaminants and not quantified proteins in the DMSO control samples were discarded. Protein raw and label-free quantification intensities were normalized to the median DMSO control intensity to obtain relative residual binding intensities for each protein group at every inhibitor concentration and standard deviations of the DMSO control intensity were calculated. IC50 values were estimated based on the following equation IC50=I×100−inhibition/inhibition where [I] is the inhibitor concentration that was used for IC50 calculation and ‘inhibition’ the relative residual binding intensity. […]. Estimated Kdapp values were then calculated by multiplying the estimated IC50 values with a protein-dependent correction factor that was limited to a maximum value of one. The correction factor accounts for the depletion of a target protein from the lysate by Kinobeads. The depletion can be measured by the ratio of the amount of protein captured in two consecutive pulldowns of the same DMSO control lysate. In this study, correction factors were determined in separate experiments using the same lysate mixture and the same bead batch. Correction factors were set to the median of all correction factors. Targets of kinase inhibitors were annotated using the previously published random forest classifier. A training data set was annotated manually. […]

CSNK2A1 (CK2) = molecular target: T6, CSNK2A1 (CK2) (Homo sapiens, UniProt P68400); assay: Kinobeads two-dose competition binding: CK2 (CSNK2A1)
T6 construct: endogenous in cells

CK2alpha1 (CSNK2A1) = molecular target: T7, CK2alpha1 (CSNK2A1) (Homo sapiens, UniProt P68400); assay: Recombinant kinase activity assay (ProQinase, FlashPlate radiometric): CK2alpha1; type: biochemical; details: Enzyme CK2alpha1; Highest Assay Concentration 1.00E-06 M; read-out: IC50
T7 construct: purchased ProQinase
Description: as §1

[6] = molecular target: T8, endogenous kinases and other proteins enriched by Kinobeads from mixed cancer cell lysates (Homo sapiens, UniProt Q86TW2); assay: Kinobeads pulldown, full dose-response (eight doses); type: binding; details: target ADCK1; in nM;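 also: competition with Kinobeads ε after inhibitor preincubation in lysate (5 mg/ml protein) for 45 min at 4 °C, DMSO control, doses 0.3–1,000 nM, label-free LC–MS/MS quantification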
T8 construct: endogenous in cells

[7] = molecular target: T9, endogenous kinases and other proteins enriched by Kinobeads from mixed cancer cell lysates (Homo sapiens, UniProt P68400); assay: as above; type: binding; details: target CSNK2A1;CSNK2A3; in nM
T9 construct: endogenous in cells

[8] = molecular target: T10, endogenous kinases and other proteins enriched by Kinobeads from mixed cancer cell lysates (Homo sapiens, UniProt P19784); assay: as above; type: binding; details: target CSNK2A2; in nM
T10 construct: endogenous in cells

[9] = molecular target: T11, endogenous kinases and other proteins enriched by Kinobeads from mixed cancer cell lysates (Homo sapiens, UniProt P67870); assay: as above; type: binding; details: target CSNK2B; in nM
T11 construct: endogenous in cells

[10] = molecular target: T12, endogenous kinases and other proteins enriched by Kinobeads from mixed cancer cell lysates (Homo sapiens, UniProt P16083); assay: as above; type: binding; details: target NQO2; in nM
T12 construct: endogenous in cells

[11] = molecular target: T13, endogenous kinases and other proteins enriched by Kinobeads from mixed cancer cell lysates (Homo sapiens, UniProt Q9Y616); assay: as above; type: binding; details: target IRAK3; in nM
T13 construct: endogenous in cells

[12] = molecular target: T14, endogenous kinases and other proteins enriched by Kinobeads from mixed cancer cell lysates (Homo sapiens, UniProt O75822); assay: as above; type: binding; details: target EIF3J; in nM
T14 construct: to maximize the representation of endogenous proteins; endogenous in cells

[13] = tested on: IL-10 secretion in primary bone marrow-derived dendritic cells (BMDCs); assay: IL-10 cytokine secretion assay (ELISA) in Zymosan-stimulated primary BMDCs; type: cell-based, mouse; details: murine BMDCs, inhibitor 30 min before Zymosan stimulation
Description: A subsequent full dose–response experiment confirmed potent and selective binding to SYK ( Kdapp = 58 nM, […] = 0.60; Extended Data Fig. 5a,b). […] One of the effects of Zymosan is that it activates Dectin-1 signaling, in turn activating SYK and leading to increased IL-10 cytokine production (Fig. 3c)[34]. Treatment of cells with the respective SYK inhibitors before Zymosan stimulation indeed led to decreased levels of IL-10 in a dose-dependent fashion (Fig. 3d). […] In line with the cytokine readout, we observed a dose depended reduction of pTyr525/526 indicating SYK inhibition in live cells (Fig. 3e and Extended Data Fig. 5c).
Primary BMDCs were obtained from 9-week-old C57BL/6 mice that were maintained under standard specific pathogen-free conditions. BMDCs were differentiated for 7 days in Roswell Park Memorial Institute medium (Gibco) and granulocyte-macrophage colony-stimulating factor. On day seven, BMDCs were seeded in 96-well plates at 10^5 cells per well in 100 µl of culture medium followed by incubation for 4 h at 37 °C. Subsequently, cells were incubated with SYK inhibitors for 30 min followed by stimulation with Zymosan (final concentration of 50 µg ml^−1; Invivogen) and dispersed in culture medium for 24 h. […] For cytokine secretion quantification, cell culture medium was collected and concentrations of IL-10 in the supernatant were determined using mouse enzyme-linked immunosorbent assay kits (IL-10: Invitrogen) according to the manufacturer’s protocol. Experiments were performed in biological triplicates.

Compound: CCN1C(C)(C)CC(Oc2ccc(C(=O)Nc3ccc(NC(=O)Nc4cc(C(C)(C)C)on4)cc3)nc2)CC1(C)C [AC710]
IC50 [1]: 0.002 µM
Potency value ([2]; 1st of 4 values listed for 5 targets): 0.0005 µM
Potency value ([2]; 2nd of 4 values listed for 5 targets): 0.0006 µM
Potency value ([2]; 3rd of 4 values listed for 5 targets): 0.001 µM
Potency value ([2]; 4th of 4 values listed for 5 targets): 0.0013 µM

Compound: Cc1ccc2c(NS(=O)(=O)c3ccccc3Cl)cccc2c1Oc1ncccc1-c1ccnc(N[C@H]2CCCNC2)n1 [AMG-18]
Potency value (ERN1): 0.013 µM
IC50 (XBP1 splicing in cells): 0.099 µM

Compound: COc1cc(-c2nn([C@H]3CC[C@H](N4CCN(C(C)=O)CC4)CC3)c3ncnc(N)c23)ccc1NC(=O)c1cc2ccccc2n1C [Compound A-770041]
EC50 [3]: 0.08 µM
Potency value (LCK): 147 nM @ 1 mM ATP

potency estimated from few doses [4]: 0.747 µM
Compound: CNC(=O)c1cncc(/C=C/c2ccccc2Cl)c1 [GW445017X]

potency estimated from few doses [5]: 0.423 µM
Compound: CCS(=O)(=O)c1ccc(OC)c(Nc2ncc(-c3cccc(-c4ccccc4F)c3)o2)c1 [GW678313X]

IC50 (CDK1/cyclinB): > 1 µM
IC50 (CK2alpha2 (CSNK2A2); Enzyme CK2alpha2, Highest Assay Concentration 1.00E-06 M, read-out: IC50): 0.0653 µM
IC50 (CK2alpha2 (CSNK2A2); recombinant kinase activity assay at KM (ATP), read-out: Activity IC50 CSNK2A2): 0.065 µM
potency estimated from few doses (CSNK2A2): 0.057 µM
potency estimated from few doses (CSNK2A1 (CK2); Kinobeads two-dose screen (binding), read-out: Kdapp CK2 (CSNK2A1)): 0.058 µM
CATDSCK2 (CSNK2A1 (CK2); selectivity score from Kinobeads two-dose data): 0.86
IC50 (CK2alpha1 (CSNK2A1)): 0.116 µM
Compound: CONC1=NC(=O)/C(=C/c2ccc3ncccc3c2)S1 [RO4613269-000]

EC50 [6]: 16437.9
EC50 [7]: 1585.19
EC50 [8]: 1314.91
EC50 [9]: 940.697
EC50 [10]: 295.4
EC50 [11]: 4708.37
EC50 [12]: 1609.61
Compound: c1cn2cc(-c3ccc4cn[nH]c4c3)nc(Nc3ccc(N4CCOCC4)cc3)c2n1 [entospletinib]
IL-10 levels [13]: dose-dependent reduction
